Consider 24 molecules from ChEMBL document CHEMBL5291721, “A preclinical secondary pharmacology resource illuminates target-adverse drug reaction associations of marketed drugs” (Nat Commun, 2023).

Experiment [1] addresses Glucagon receptor (Homo sapiens, UniProt P47871).
Experiment [2] addresses T1, B1 bradykinin receptor (Homo sapiens, UniProt P46663).
T1 sequence (P46663 whole entry): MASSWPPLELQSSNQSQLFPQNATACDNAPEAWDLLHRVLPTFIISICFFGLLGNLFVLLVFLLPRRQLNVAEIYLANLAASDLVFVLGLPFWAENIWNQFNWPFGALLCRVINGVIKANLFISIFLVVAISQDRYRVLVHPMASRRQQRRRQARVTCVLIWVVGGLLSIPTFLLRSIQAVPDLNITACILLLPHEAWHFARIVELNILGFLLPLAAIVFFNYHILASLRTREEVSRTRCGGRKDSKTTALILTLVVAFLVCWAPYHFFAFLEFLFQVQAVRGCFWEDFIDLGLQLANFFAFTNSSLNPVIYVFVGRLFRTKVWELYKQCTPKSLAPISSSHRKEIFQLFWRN

For experiment [3], the target named is T2, Endothelin receptor type B (Homo sapiens, UniProt P24530).
T2 sequence (P24530 whole entry): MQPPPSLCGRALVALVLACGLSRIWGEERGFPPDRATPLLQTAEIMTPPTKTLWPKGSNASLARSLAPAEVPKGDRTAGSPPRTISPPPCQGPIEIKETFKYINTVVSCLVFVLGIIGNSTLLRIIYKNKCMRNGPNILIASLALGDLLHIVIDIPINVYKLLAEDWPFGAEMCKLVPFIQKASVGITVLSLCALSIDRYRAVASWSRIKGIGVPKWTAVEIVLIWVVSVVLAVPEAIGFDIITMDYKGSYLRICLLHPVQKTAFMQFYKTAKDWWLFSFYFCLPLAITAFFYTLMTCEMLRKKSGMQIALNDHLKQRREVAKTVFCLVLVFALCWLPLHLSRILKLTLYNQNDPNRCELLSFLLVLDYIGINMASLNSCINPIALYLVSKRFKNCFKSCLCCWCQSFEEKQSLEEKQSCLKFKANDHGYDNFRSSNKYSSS

Experiment [4] has as its target Gamma-aminobutyric acid type B receptor subunit 1 (Homo sapiens, UniProt Q9UBS5).
Experiment [5] has as its target T3, Gamma-aminobutyric acid receptor subunit alpha-1/alpha-2/beta-2/gamma-2 (Homo sapiens, UniProt P14867+P18507+P47869+P47870). Type of experiment: functional, cell-based.
In experiment [6] the target is Estrogen receptor beta (Homo sapiens, UniProt Q92731).
The target of experiment [7] is Neurotensin receptor type 1 (Homo sapiens, UniProt P30989).
For experiment [8], the target named is T3, Gamma-aminobutyric acid receptor subunit alpha-1/alpha-2/beta-2/gamma-2. In kind it is functional, cell-based. The source holds these as a separate data set.
For experiment [9], the target named is Substance-P receptor (Homo sapiens, UniProt P25103).
The target in experiment [10] is Histamine H1 receptor (Homo sapiens, UniProt P35367). Type of experiment: functional, cell-based.
Experiment [11] has as its target T4, Peroxisome proliferator-activated receptor gamma (Homo sapiens, UniProt P37231).
T4 sequence (P37231 whole entry): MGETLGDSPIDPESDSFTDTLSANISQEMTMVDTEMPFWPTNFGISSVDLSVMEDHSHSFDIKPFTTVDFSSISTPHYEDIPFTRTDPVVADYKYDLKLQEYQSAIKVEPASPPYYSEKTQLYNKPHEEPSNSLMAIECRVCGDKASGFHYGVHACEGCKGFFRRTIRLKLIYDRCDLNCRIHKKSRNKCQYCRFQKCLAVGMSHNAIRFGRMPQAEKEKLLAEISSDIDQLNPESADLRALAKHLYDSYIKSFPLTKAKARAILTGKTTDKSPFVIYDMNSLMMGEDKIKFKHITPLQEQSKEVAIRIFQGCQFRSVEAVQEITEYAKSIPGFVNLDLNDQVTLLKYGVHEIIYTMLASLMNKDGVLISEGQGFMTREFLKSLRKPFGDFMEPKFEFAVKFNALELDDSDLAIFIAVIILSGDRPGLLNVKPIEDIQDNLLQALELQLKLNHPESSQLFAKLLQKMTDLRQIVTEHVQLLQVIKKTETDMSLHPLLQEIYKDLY
In kind it is functional.

In experiment [12] the target is D(1A) dopamine receptor (Homo sapiens, UniProt P21728). In kind it is functional, cell-based.
The target in experiment [13] is T5, Androgen receptor (Rattus norvegicus, UniProt P15207).
T5 sequence (P15207 whole entry): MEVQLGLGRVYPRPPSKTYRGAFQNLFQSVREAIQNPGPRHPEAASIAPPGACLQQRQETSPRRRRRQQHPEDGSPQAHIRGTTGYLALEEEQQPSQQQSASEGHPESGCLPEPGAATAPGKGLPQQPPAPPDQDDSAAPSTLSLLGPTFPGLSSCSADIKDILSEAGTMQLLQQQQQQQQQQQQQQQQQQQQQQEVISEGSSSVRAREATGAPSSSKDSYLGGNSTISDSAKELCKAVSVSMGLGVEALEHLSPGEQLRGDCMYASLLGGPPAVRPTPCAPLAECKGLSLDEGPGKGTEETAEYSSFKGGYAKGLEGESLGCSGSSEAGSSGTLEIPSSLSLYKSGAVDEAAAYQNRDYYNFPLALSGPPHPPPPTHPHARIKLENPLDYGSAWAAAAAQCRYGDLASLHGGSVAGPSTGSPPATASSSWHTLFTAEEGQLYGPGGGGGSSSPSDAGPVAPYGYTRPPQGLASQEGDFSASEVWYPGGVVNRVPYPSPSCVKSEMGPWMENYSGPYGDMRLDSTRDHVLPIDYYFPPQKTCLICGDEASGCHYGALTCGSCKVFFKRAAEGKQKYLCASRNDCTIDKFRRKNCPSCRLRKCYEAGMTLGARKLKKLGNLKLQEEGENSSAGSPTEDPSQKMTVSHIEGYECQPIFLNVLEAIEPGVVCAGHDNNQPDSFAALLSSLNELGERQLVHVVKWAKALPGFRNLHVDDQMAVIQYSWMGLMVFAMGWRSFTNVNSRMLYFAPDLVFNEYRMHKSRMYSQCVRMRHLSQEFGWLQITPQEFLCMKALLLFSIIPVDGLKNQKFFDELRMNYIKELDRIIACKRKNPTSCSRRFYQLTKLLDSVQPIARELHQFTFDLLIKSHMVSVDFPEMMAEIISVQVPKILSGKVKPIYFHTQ
Note: assay procedure not described here.

Chain of Histamine H1 receptor (P35367 whole entry): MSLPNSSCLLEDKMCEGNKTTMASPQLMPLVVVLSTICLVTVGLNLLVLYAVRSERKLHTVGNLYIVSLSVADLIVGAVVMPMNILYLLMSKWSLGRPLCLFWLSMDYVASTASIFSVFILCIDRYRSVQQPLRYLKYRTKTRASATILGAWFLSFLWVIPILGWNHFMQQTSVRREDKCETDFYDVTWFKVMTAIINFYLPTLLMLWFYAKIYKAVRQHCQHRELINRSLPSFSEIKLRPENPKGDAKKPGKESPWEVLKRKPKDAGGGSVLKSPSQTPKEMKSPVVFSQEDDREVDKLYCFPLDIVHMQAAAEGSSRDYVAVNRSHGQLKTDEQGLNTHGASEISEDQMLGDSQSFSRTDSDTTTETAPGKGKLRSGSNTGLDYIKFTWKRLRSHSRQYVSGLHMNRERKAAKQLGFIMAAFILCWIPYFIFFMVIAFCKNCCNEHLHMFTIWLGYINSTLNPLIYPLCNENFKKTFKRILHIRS
Chain of Substance-P receptor (P25103 whole entry): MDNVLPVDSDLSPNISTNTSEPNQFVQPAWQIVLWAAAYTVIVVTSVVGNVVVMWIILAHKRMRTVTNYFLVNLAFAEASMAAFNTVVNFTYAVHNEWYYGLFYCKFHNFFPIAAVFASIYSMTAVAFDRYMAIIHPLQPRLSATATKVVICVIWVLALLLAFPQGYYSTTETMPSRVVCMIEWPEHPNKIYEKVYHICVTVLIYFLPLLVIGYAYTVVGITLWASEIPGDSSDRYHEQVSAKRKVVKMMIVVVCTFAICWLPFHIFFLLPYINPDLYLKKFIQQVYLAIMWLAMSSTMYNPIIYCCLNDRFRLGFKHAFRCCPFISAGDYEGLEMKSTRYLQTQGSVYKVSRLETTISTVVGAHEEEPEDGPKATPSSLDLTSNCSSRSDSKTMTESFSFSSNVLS
Chain of Gamma-aminobutyric acid type B receptor subunit 1 (Q9UBS5 whole entry): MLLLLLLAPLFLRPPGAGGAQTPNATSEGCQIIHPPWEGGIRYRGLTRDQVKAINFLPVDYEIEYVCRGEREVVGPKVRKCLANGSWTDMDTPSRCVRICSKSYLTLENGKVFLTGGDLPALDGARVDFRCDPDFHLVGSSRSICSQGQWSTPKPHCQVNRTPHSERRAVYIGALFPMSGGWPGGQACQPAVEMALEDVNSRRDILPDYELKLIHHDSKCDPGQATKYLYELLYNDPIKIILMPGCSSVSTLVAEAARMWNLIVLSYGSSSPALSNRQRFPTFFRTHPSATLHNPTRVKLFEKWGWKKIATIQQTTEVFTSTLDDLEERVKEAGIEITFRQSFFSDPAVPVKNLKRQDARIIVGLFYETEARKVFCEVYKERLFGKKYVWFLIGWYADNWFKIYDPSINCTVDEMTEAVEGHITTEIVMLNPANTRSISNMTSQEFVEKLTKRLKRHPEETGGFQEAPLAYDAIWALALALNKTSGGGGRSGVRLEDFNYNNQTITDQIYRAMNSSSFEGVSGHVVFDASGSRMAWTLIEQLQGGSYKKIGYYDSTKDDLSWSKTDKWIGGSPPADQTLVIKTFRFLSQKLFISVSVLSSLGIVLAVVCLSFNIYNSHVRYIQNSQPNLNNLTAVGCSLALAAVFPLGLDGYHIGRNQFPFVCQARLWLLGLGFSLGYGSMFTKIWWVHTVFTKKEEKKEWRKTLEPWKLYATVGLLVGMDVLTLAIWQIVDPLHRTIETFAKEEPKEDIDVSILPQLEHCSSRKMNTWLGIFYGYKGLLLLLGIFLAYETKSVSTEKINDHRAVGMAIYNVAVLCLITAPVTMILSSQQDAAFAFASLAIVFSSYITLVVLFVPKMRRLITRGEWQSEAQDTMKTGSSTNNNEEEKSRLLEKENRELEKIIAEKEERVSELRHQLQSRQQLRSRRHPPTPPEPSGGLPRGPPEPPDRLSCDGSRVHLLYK
T3 sequence (P14867 whole entry): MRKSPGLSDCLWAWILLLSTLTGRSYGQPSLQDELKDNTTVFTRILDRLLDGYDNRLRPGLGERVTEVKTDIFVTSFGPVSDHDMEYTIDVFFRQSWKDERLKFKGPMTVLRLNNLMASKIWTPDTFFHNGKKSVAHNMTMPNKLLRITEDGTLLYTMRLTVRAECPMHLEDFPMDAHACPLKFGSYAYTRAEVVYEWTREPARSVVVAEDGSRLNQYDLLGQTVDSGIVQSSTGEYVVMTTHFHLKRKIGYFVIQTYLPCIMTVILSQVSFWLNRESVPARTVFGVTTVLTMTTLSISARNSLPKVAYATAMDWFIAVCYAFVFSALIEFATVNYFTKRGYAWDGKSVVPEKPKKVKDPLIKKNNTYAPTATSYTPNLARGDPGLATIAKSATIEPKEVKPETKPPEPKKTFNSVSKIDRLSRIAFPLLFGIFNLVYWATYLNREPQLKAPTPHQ
T3 sequence (P47870 whole entry): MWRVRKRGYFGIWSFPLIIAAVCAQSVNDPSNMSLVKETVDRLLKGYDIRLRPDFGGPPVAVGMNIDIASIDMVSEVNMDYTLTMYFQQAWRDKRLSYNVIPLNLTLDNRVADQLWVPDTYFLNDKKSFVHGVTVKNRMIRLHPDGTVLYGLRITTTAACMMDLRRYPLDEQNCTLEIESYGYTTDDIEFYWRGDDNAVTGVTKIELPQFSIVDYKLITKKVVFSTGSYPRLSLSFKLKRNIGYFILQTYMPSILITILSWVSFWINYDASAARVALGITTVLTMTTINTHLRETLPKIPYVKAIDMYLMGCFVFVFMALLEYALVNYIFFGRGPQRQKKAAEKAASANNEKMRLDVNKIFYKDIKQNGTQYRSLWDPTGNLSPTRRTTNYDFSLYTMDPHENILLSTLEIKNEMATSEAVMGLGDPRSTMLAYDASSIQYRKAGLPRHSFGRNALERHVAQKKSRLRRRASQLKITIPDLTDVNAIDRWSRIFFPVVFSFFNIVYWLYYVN
T3 sequence (P18507 whole entry): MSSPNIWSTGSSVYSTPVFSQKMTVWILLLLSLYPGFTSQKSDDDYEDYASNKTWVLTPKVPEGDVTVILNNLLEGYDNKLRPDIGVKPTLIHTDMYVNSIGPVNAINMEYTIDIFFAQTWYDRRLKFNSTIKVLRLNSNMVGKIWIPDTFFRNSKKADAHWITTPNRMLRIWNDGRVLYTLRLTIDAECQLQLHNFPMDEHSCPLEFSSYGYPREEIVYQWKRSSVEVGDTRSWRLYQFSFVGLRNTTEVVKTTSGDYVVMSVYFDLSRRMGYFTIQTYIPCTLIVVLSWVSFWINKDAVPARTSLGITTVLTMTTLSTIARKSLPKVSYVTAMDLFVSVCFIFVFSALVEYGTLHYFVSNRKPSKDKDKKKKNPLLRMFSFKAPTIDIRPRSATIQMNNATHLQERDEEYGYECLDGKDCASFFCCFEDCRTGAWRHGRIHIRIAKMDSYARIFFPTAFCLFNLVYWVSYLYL
T3 sequence (P47869 whole entry): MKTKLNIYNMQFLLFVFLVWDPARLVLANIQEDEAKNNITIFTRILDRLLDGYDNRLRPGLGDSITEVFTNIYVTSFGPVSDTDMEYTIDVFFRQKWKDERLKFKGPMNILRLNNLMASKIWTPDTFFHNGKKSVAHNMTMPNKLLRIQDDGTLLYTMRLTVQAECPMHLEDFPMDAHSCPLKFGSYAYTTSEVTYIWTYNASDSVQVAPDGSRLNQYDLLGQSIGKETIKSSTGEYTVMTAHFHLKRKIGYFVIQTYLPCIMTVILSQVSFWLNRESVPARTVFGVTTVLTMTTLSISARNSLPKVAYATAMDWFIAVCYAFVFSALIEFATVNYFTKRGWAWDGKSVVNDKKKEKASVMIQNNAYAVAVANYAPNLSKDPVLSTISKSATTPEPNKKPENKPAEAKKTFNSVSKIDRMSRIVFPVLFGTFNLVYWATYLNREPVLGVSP
Chain of Estrogen receptor beta (Q92731 whole entry): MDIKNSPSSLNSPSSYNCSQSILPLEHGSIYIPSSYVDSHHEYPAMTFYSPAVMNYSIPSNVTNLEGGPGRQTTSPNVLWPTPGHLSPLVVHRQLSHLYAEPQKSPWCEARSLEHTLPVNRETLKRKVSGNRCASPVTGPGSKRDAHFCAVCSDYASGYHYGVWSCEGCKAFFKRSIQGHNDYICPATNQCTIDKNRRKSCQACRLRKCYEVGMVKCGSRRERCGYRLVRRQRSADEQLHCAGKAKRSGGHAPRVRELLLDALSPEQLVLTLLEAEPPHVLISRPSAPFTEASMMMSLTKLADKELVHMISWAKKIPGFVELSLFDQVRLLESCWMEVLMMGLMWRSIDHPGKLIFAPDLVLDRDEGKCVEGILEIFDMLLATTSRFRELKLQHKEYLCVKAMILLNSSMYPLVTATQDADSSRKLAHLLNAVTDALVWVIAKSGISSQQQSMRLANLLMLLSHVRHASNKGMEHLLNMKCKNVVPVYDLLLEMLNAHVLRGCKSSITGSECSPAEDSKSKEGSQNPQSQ
Chain of Neurotensin receptor type 1 (P30989 whole entry): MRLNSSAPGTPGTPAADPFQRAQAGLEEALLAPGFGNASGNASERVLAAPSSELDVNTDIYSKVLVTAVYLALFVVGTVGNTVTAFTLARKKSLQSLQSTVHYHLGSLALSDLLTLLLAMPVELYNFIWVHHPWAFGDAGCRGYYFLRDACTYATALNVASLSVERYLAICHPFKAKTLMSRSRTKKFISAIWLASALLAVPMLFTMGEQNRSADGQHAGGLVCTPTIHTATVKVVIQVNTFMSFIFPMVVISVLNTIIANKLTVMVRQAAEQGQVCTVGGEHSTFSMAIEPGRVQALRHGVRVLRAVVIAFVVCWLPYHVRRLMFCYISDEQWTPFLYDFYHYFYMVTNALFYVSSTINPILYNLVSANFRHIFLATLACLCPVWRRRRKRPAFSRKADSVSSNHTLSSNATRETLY

Turning to `CNS(=O)(=O)Cc1ccc2[nH]cc(CCN(C)C)c2c1`, the AC50 (in general, the concentration at which the activity in the assay is half-maximal) was > 30 µM in [1]; > 30 µM in experiment [2]; > 30 µM in [3]; > 10 µM in experiment [4]; > 30 µM in experiment [5]; > 30 µM in experiment [6]. In addition, the AC50 in experiment [7] and in [8] was > 30 µM in each case.

`CCCN(CCC)C(=O)C(CCC(=O)O)NC(=O)c1ccccc1` (configuration not stated) [PROGLUMIDE]: the concentration at half-maximal activity (AC50) is > 30 µM in [1]; > 30 µM in experiment [2]; > 30 µM in experiment [3]; > 10 µM in experiment [9]; > 30 µM in experiment [7].

Regarding `CCC1(CC)C(=O)NCC(C)C1=O` (configuration not stated) [METHYPRYLON], the half-maximal activity concentration (AC50) in [5], in experiment [10], in experiment [11] and in [8] was > 30 µM in each case.

On to `COc1ccc2c3c1O[C@H]1[C@@H](O)C=C[C@H]4[C@@H](C2)N(C)CC[C@@]341` [CODEINE], for which the AC50 is > 30 µM in [1]; > 30 µM in experiment [2]; > 30 µM in experiment [3]; > 10 µM in experiment [4]; > 10 µM in experiment [9]; > 30 µM in [7].

On to `CCCc1nc(C(C)(C)O)c(C(=O)OCc2oc(=O)oc2C)n1Cc1ccc(-c2ccccc2-c2nnn[nH]2)cc1` [OLMESARTAN MEDOXOMIL], for which the half-maximal activity concentration (AC50) in experiment [1] is > 50 µM; in experiment [2] it was > 50 µM; in experiment [3] it was > 50 µM; in [6], > 30 µM; in experiment [9], > 10 µM; in experiment [7], > 30 µM.

Turning to `CN1CCN(CC/C=C2/c3ccccc3Sc3ccc(S(=O)(=O)N(C)C)cc32)CC1` [THIOTHIXENE], the AC50 in [12] was 0.98 µM; in [1] it was > 30 µM; in experiment [2], > 30 µM; in [3], > 30 µM; in experiment [13], > 30 µM; in [4], > 10 µM. Also, the AC50 in experiment [6] was > 30 µM; in [9], 3.84 µM; in experiment [7] it was > 30 µM.

As for `O=C(O)C1=C(CSc2nnnn2CS(=O)(=O)O)CS[C@@H]2[C@H](NC(=O)[C@H](O)c3ccccc3)C(=O)N12` [CEFONICID], the AC50 in experiment [13] is > 30 µM.

As for `CCc1c(Cl)c(O)c(Cl)c(O)c1C(=O)O[C@H]1[C@H](O)[C@H](OC)[C@H](OC/C2=C\C=C\C[C@H](O)/C(C)=C/[C@H](CC)[C@@H](O[C@@H]3OC(C)(C)[C@@H](OC(=O)C(C)C)[C@H](O)[C@@H]3O)/C(C)=C/C(C)=C/C[C@@H]([C@@H](C)O)OC2=O)O[C@@H]1C` [FIDAXOMICIN], the AC50 is > 30 µM in [1]; > 30 µM in experiment [2]; > 30 µM in [3]; 25 µM in experiment [13]; > 30 µM in experiment [6]; 5.92 µM in experiment [9]. Besides, in experiment [7], the AC50 was > 30 µM.

`O=C(NCCNCC(O)COc1ccc(O)cc1)N1CCOCC1` (configuration not stated) [XAMOTEROL]: the AC50 in experiment [5], in [10] and in [8] was > 30 µM in each case.

For the molecule `CC(C)Cn1cnc2c(N)nc3ccccc3c21` [IMIQUIMOD], in experiment [13], the AC50 was > 10 µM.

Take `O=C(O)C[C@H](O)C[C@H](O)/C=C/c1c(C2CC2)nc2ccccc2c1-c1ccc(F)cc1` [PITAVASTATIN]: in [13], the concentration at half-maximal activity (AC50) was > 10 µM.

For the molecule `CO/N=C(\C(=O)N[C@@H]1C(=O)N2C(C(=O)O)=C(CSc3nnnn3C)CS[C@H]12)c1csc(N)n1` [CEFMENOXIME], the half-maximal activity concentration (AC50) in experiment [11] is > 30 µM.

Regarding `CC(C)(C)c1cc(C(C)(C)C)c(NC(=O)c2c[nH]c3ccccc3c2=O)cc1O` [IVACAFTOR], the concentration at half-maximal activity (AC50) in experiment [13] is > 30 µM.

In the case of `CCN1CCN(C(=O)N[C@@H](C(=O)N[C@@H]2C(=O)N3C(C(=O)O)=C(CSc4nnnn4C)CS[C@H]23)c2ccc(O)cc2)C(=O)C1=O` [CEFOPERAZONE], the AC50 in experiment [5], in experiment [11] and in [8] was > 30 µM in each case.

Regarding `C=CCN1CCCC1CNC(=O)c1cc(S(N)(=O)=O)cc(OC)c1OC` (configuration not stated) [VERALIPRIDE], the AC50 in [12] is > 30 µM.

With `CC(C)OC(=O)CCC/C=C\C[C@@H]1[C@@H](CC[C@@H](O)CCc2ccccc2)[C@H](O)C[C@@H]1O` [LATANOPROST], the AC50 in experiment [5], in [10], in experiment [11] and in experiment [8] was > 30 µM each time.

For the molecule `NCC[C@H](O)C(=O)N[C@@H]1C[C@H](N)[C@@H](O[C@H]2O[C@H](CN)[C@@H](O)[C@H](O)[C@H]2O)[C@H](O)[C@H]1O[C@H]1O[C@H](CO)[C@@H](O)[C@H](N)[C@H]1O` [AMIKACIN], the AC50 in [13] was > 10 µM.

Turning to `CC[C@@H]1C(=O)OC[C@@H]1Cc1cncn1C` [PILOCARPINE], the concentration at half-maximal activity (AC50) in experiment [10] is > 30 µM.

For `COC(=O)[C@H]1[C@H]2C[C@@H]3c4[nH]c5cc(OC)ccc5c4CCN3C[C@H]2C[C@@H](OC(=O)/C=C/c2cc(OC)c(OC)c(OC)c2)[C@@H]1OC` [RESCINNAMINE], the half-maximal activity concentration (AC50) in experiment [13] was > 10 µM.

As to `N#Cc1ccc([C@H]2CCc3cncn32)c(F)c1` [OSILODROSTAT], the AC50 in experiment [2], in [3], in [4], in experiment [9] and in [7] was > 10 µM throughout.

Consider `C=CCC1(CC(C)C)C(=O)NC(=O)NC1=O` [BUTALBITAL], for which the AC50 in [13] is > 10 µM.

Take `NCC(=O)CCC(=O)O` [AMINOLEVULINIC ACID]: the AC50 in [5], in [10] and in experiment [8] was > 30 µM in each case.

Turning to `CN1C(=O)C(O)N=C(c2ccccc2)c2cc(Cl)ccc21` (configuration not stated) [TEMAZEPAM], the half-maximal activity concentration (AC50) in [1] was > 30 µM; in [2], > 30 µM; in experiment [3], > 30 µM; in experiment [6] it was > 30 µM; in [9] it was > 10 µM; in experiment [7], > 30 µM.

With `C/C(O)=C(\C#N)C(=O)Nc1ccc(C(F)(F)F)cc1` [TERIFLUNOMIDE], the AC50 in experiment [5] was > 30 µM; in experiment [11], 25 µM; in experiment [8], > 30 µM.
